Data on twelve compounds can be found in patent publication US8026275B2 (priority 2005, dated 2011).

The nature of data set [1]: Total Antioxidant Status Assay (CalBiochem), inhibition of ABTS oxidation. Type of data set: biochemical. To be noted: read-out: Antioxidant activity (IC50, 50% suppression of ABTS+ absorbance at 600 nm). The source says: The assay used relies on the ability of antioxidants in the sample to inhibit the oxidation of ABTS (2,2'-Azino-di-[3-ethylbenzthiazoline sulphonate]) to ABTS+ by metmyoglobin (a peroxidase). The amount of ABTS+ produced was monitored at 600 nm. Under the reaction conditions used, the antioxidants in the sample suppress the absorbance at 600 nm to a degree which is proportional to their concentration and antioxidant activity.

Data set [2] deals with rats. The data set is described as follows: Anesthetic activity in vivo, time to recovery of righting reflex. Conditions: for toxicity compared with 2,6-diisopropyl phenol: equimolar dose; for duration of anesthesia (time to recovery of righting reflex): tail vein injection in DMSO, 28 μmol/kg (5 mg/kg for 2,6-diisopropyl phenol). Also noted: species or system rat. The method, then:
Drugs solubilized in DMSO were administered to rats by tail vein injection (N=5 rats per group). […] GABAA binding activity in vitro was performed as described in Example 27.

The subject of data set [3] is rats. Description: Dose escalation in rats: mortality and anesthetic activity. Conditions: rats; for LD10: in DMSO, calculated from mortality curves. The method, then: (§1) Drugs solubilized in DMSO were administered to rats (5 rats per group). Anesthetic activity in vivo was determined as time to recovery of righting reflex. […] In order to adjust for the differences in molecular weight between the two compounds, umol/kg dose was used.

Assay in data set [4]: as above
Conditions: rat, in vivo. The procedure: as §1

For data set [5], the target named is T1, GABAA Cl channel.
T1 construct: other: determined graphically, increasing concentr; other: 10^-4M, bovine hippocampus
Type of data set: binding, bovine. To be noted: for Kd: read-out: binding constant (KD), inhibition of TBOB binding to GABAA receptor.

The conditions of data set [6]: rat, intravenously via jugular vein cannula, in DMSO, blood.
A short description of data set [7]: in vivo. To be noted: rat. The source says: Time plasma concentration curve was processed using a two compartment PK model supported by WinNonlin.
For data set [8], the system named is GABAA alpha-1 site. Conditions: 10^-4M, bovine hippocampus.
For data set [9] the following is noted: dissolved in DMSO.
The test system of data set [10] is GABAA alpha-6 site. To be noted: 10^-4M, bovine hippocampus.
Data set [11] concerns GABAA agonist site. Conditions: 10^-4M, bovine hippocampus.
The test system of data set [12] is GABAA alpha 2 site. To be noted: 10^-4M, bovine hippocampus.
Data set [13] has as its system GABAA Cl channel. Type of data set: binding, bovine. To be noted: read-out: IC50 of binding to GABA Cl channel.
A short description of data set [14]: in vivo. Conditions: rat, plasma, intravenous, 5 mg/kg.
The mark [15] stands for this setting: determined graphically, increasing concentrations.
[16] abbreviates: 5 mg/kg intravenously in DMSO, plasma.

Molecules are shown by their SMILES. Where two headings read alike, the source gives them in different places.

As a reminder, the IC50 is the concentration needed to halve the response being measured. Regarding `CC(C)c1cc(C(=O)c2cccc(C(F)(F)F)c2)cc(C(C)C)c1O` [Compound 5, (3-(trifluoromethyl)phenyl)-(4-hydroxy-3,5-diisopropylphenyl)methanone], the concentration for half-maximal inhibition (IC50) in data set [1] is > 1000 µM.
By LD50 is commonly meant the dose at which mortality reaches 50%. The low end stands for a more toxic substance, the high end for a less toxic substance. As a reminder, the Kd is the constant that tells how readily two partners part at equilibrium. What is called AUC is the area under the concentration-time curve, a measure of exposure. A word on the Cmax: it is the maximum level reached in the sampled fluid or tissue. As for `CC(C)c1cc(C(=O)c2ccc(C(F)(F)F)cc2)cc(C(C)C)c1O` [Compound 2], in data set [2], the “toxicity compared with 2,6-diisopropyl phenol” value is recorded as “did not have toxicity above that of 2,6-diisopropyl phenol” and the “duration of anesthesia (time to recovery of righting reflex)” value (“duration of anesthesia” below) lay within 75 to 92 min. The half-inhibitory concentration (IC50) in data set [1] was > 1000 µM. In data set [3], the “time asleep at LD10” value came to 1.73 h and the LD10 was 29 µmol/kg. Further, in [3] (dose escalation), the “anesthetic activity compared with 2,6-diisopropyl phenol” value is recorded as “better anesthetic activity than 2,6-diisopropyl phenol at all dose levels”. This compound also came in with an LD50 in data set [4] of 62.1 µmol/kg. Also, the Kd in [5] (setting [15]) came out at 0.42 µM. Moreover, in data set [6], the AUC worked out at 127000 ng·h/mL, the CL was found to be 1.3 mL/min/kg, the Cmax worked out at 283000 ng/mL and the “Vc (volume of the central compartment)” value is on record as 0.04 L/kg. In data set [6], the “Vss (volume distribution at steady state)” value is reported as 5.3 L/kg and the “Vt (volume of the tissue compartment)” value worked out at 5.2 L/kg.
The term Vd denotes the apparent volume that relates the amount in the body to the concentration in plasma or blood. One may read the clearance as the volume of plasma or blood freed of the substance per unit of time. The low end stands for a low capacity for elimination, the high end for a high capacity for elimination. Turning to `CC(C)c1cccc(C(C)C)c1O` [2,6-diisopropyl phenol], in data set [7] (setting [16]), the V1 was found to be 15 L/kg and the V2 worked out at 58 L/kg. Further, in [7] (in vivo, iv, 5 mg/kg), the AUC is 400 ng·h/mL, the peak level (Cmax) was 300 ng/mL, the Vd is 73 L/kg and the clearance is 200 mL/min/kg. For the same compound, in data set [8], the “inhibition of the alpha 1 site” value is given as “No significant inhibition”. Moreover, the “duration of anesthesia” value in data set [2] is 20 min. The “time the rat was put to sleep” value in data set [9] was 20 min. Also, the “inhibition of the alpha 6 site” value in data set [10] is given as “No significant inhibition”. Also, the “inhibition of the agonist site” value in data set [11] is “No significant inhibition”. For the same compound, in [12], the “inhibition of the alpha 2 site” value is on record as “No significant inhibition”. In data set [3], the “time asleep at LD10” value turned out to be 0.35 h and the LD10 was 28 µmol/kg. This compound also returned a median lethal dose (LD50) in data set [4] of 45.3 µmol/kg. Further, in data set [5], the “inhibition of TBOB binding to the chloride channel” value was “inhibited the binding of TBOB” and the Kd was found to be 5.74 µM. In addition, the IC50 in data set [13] stood at 96 µM. In addition, in [6], the AUC turned out to be 400 ng·h/mL, the CL was 195 mL/min/kg, the Cmax was found to be 300 ng/mL and the “Vc (volume of the central compartment)” value is recorded as 15.0 L/kg. The “Vt (volume of the tissue compartment)” value in data set [6] is 58.0 L/kg. This compound displayed a concentration at 20 min in data set [14] of 750 nM.
For the compound `CC(C)c1cc(C(=O)c2ccc(C(C)(C)C)cc2)cc(C(C)C)c1O` [Compound 9, (4-tert-butylphenyl)-(4-hydroxy-3,5-diisopropylphenyl)methanone], the concentration for half-maximal inhibition (IC50) in data set [1] was > 1000 µM.
With `CC(C)c1cc(C(=O)c2ccc(I)cc2)cc(C(C)C)c1O` [Compound 11, (4-hydroxy-3,5-diisopropylphenyl)-(4-iodophenyl)methanone], in data set [2], the “toxicity compared with 2,6-diisopropyl phenol” value is given as “did not have toxicity above that of 2,6-diisopropyl phenol” and the “duration of anesthesia” value worked out at 86 min. For the same compound, the half-inhibitory concentration (IC50) in data set [1] was > 1000 µM. In addition, the Kd in data set [5] (setting [15]) was 0.36 µM.
Consider `CC(C)c1cc(C(=O)c2ccc(C#N)cc2)cc(C(C)C)c1O` [Compound 13, (4-cyanophenyl)-(4-hydroxy-3,5-diisopropylphenyl)methanone], for which the IC50 in [1] is > 1000 µM.
Same read-out and setting: then `CC(C)c1cc(C(=O)c2ccc(F)cc2)cc(C(C)C)c1O` [Compound 1, (4-fluorophenyl)-(4-hydroxy-3,5-diisopropylphenyl)methanone], with > 1000 µM; and `CC(C)c1cc(C(=O)c2ccc(C(F)(F)F)nc2)cc(C(C)C)c1O` [Compound 14, (6-(trifluoromethyl)pyridin-3-yl)-(4-hydroxy-3,5-diisopropylphenyl)methanone], with > 1000 µM; and `CC(C)c1cc(C(=O)c2cc(F)cc(C(F)(F)F)c2)cc(C(C)C)c1O` [Compound 6, (3-fluoro-5-(trifluoromethyl)phenyl)-(4-hydroxy-3,5-diisopropylphenyl)methanone], with > 1000 µM.
With `CC(C)c1cc(C(=O)c2ccc(C(F)(F)F)c(F)c2)cc(C(C)C)c1O` [Compound 4, (3-fluoro-4-(trifluoromethyl)phenyl)-(4-hydroxy-3,5-diisopropylphenyl)methanone], the IC50 in data set [1] is > 1000 µM.
As to `CC(C)c1cc(C(=O)c2ccc([N+](=O)[O-])cc2)cc(C(C)C)c1O` [Compound 3, (4-hydroxy-3,5-diisopropylphenyl)-(4-nitrophenyl)methanone], the half-inhibitory concentration (IC50) in data set [1] was > 1000 µM.
Same read-out and setting: then `CC(C)c1cc(C(O)c2ccc(C(F)(F)F)cc2)cc(C(C)C)c1O` (stereo not drawn) [Compound 20, 4-((4-(trifluoromethyl)phenyl)(hydroxy)methyl)-2,6-diisopropylphenol], with 28 µM.
